{"source": "patent US20170027865A1", "about": "“Dry Pharmaceutical Compositions for Topical Delivery of Oral Medications, Nasal Delivery and to Treat Ear Disorders” (CMPD LICENSING LLC, priority 2013, published 2017)", "origin": "cited, not measured here", "key": {"Shigella dysenteriae": {"system": "Shigella dysenteriae", "conditions": "Gram: neg"}, "Providencia rettgeri": {"system": "Providencia rettgeri", "conditions": "Gram: neg"}, "Diphtheroids": {"system": "Diphtheroids", "conditions": "Gram: pos"}, "Enterobacter cloacae": {"system": "Enterobacter cloacae", "conditions": "Gram: neg"}, "Klebsiella pneumoniae": {"system": "Klebsiella pneumoniae", "conditions": "Gram: neg"}, "Providencia stuartii": {"system": "Providencia stuartii", "conditions": "Gram: neg"}, "[1]": {"system": "Staphylococcus aureus (MSSA)", "conditions": "Gram: pos"}, "Bacteroides fragilis": {"system": "Bacteroides fragilis", "conditions": "Gram: anaer"}, "Streptococcus agalactiae": {"system": "Streptococcus agalactiae", "conditions": "Gram: pos"}, "Chlamydia trachomatis": {"system": "Chlamydia trachomatis", "conditions": "Gram: n/a"}, "[2]": {"system": "Viridans group streptococci", "conditions": "Gram: pos"}, "Corynebacterium jeikeium": {"system": "Corynebacterium jeikeium", "conditions": "Gram: pos"}, "Shigella flexneri": {"system": "Shigella flexneri", "conditions": "Gram: neg"}, "Acinetobacter baumannii": {"system": "Acinetobacter baumannii", "conditions": "Gram: neg"}, "Salmonella typhi": {"system": "Salmonella typhi", "conditions": "Gram: neg"}, "[3]": {"system": "Methicillin Resistant Staph aureus (MRSA)", "conditions": "Gram: pos"}, "Moraxella catarrhalis": {"system": "Moraxella catarrhalis", "conditions": "Gram: neg"}, "Citrobacter diversus": {"system": "Citrobacter diversus", "conditions": "Gram: neg"}, "Morganella morganii": {"system": "Morganella morganii", "conditions": "Gram: neg"}, "Streptococcus pyogenes": {"system": "Streptococcus pyogenes", "conditions": "Gram: pos"}, "Vibrio cholerae": {"system": "Vibrio cholerae", "conditions": "Gram: neg"}, "[4]": {"system": "Acinetobacter calcoaceticus", "conditions": "Gram: neg"}, "[5]": {"system": "Haemophilus parainfluenzae", "conditions": "Gram: neg"}, "Clostridium difficile": {"system": "Clostridium difficile", "conditions": "Gram: anaer"}, "Shigella boydii": {"system": "Shigella boydii", "conditions": "Gram: neg"}, "Neisseria gonorrhoeae": {"system": "Neisseria gonorrhoeae", "conditions": "Gram: neg"}, "Pseudomonas aeruginosa": {"system": "Pseudomonas aeruginosa", "conditions": "Gram: neg"}, "Klebsiella oxytoca": {"system": "Klebsiella oxytoca", "conditions": "Gram: neg"}, "Bartonella bacilliformis": {"system": "Bartonella bacilliformis", "conditions": "Gram: neg"}, "Chlamydia pneumoniae": {"system": "Chlamydia pneumoniae", "conditions": "Gram: n/a"}, "[6]": {"system": "Staphylococcus epidermidis", "conditions": "Gram: pos"}, "Campylobacter jejuni": {"system": "Campylobacter jejuni", "conditions": "Gram: neg"}, "Proteus vulgaris": {"system": "Proteus vulgaris", "conditions": "Gram: neg"}, "Mycoplasma pneumoniae": {"system": "Mycoplasma pneumoniae", "conditions": "Gram: n/a"}, "Haemophilus ducreyi": {"system": "Haemophilus ducreyi", "conditions": "Gram: neg"}, "[7]": {"system": "Klebsiella (Calymmatobacterium) granulomatis", "conditions": "Gram: neg"}, "Escherichia coli": {"system": "Escherichia coli", "conditions": "Gram: neg"}, "Enterobacter aerogenes": {"system": "Enterobacter aerogenes", "conditions": "Gram: neg"}, "[8]": {"system": "Corynebacterium urealyticum", "conditions": "Gram: pos"}, "Streptococcus pneumoniae": {"system": "Streptococcus pneumoniae", "conditions": "Gram: pos"}, "Bordetella pertussis": {"system": "Bordetella pertussis", "conditions": "Gram: neg"}, "Peptostreptococcus": {"system": "Peptostreptococcus", "conditions": "Gram: pos"}, "Shigella sonnei": {"system": "Shigella sonnei", "conditions": "Gram: neg"}, "Pseudomonas fluorescens": {"system": "Pseudomonas fluorescens", "conditions": "Gram: neg"}, "Proteus mirabilis": {"system": "Proteus mirabilis", "conditions": "Gram: neg"}, "Serratia marcescens": {"system": "Serratia marcescens", "conditions": "Gram: neg"}, "Citrobacter freundii": {"system": "Citrobacter freundii", "conditions": "Gram: neg"}, "Acinetobacter lwoffii": {"system": "Acinetobacter lwoffii", "conditions": "Gram: neg"}, "Enterococcus faecalis": {"system": "Enterococcus faecalis", "conditions": "Gram: pos"}, "Enterobacter sakazakii": {"system": "Enterobacter sakazakii", "conditions": "Gram: neg"}, "Haemophilus influenzae": {"system": "Haemophilus influenzae", "conditions": "Gram: neg"}, "Neisseria meningitidis": {"system": "Neisseria meningitidis", "conditions": "Gram: neg"}, "[9]": {"system": "Paracoccidioides brasiliensis"}}}
{"smiles": "C[C@@H](c1ncncc1F)[C@](O)(Cn1cncn1)c1ccc(F)cc1F", "note": "[Voriconazole, voriconazole]", "values": [{"measurement": "Expected coverage", "setting": "Fusarium species", "value": "yes"}, {"measurement": "Expected coverage", "setting": "Aspergillus fumigatus", "value": "yes"}, {"measurement": "Expected coverage", "setting": "Candida species", "value": "yes"}, {"measurement": "Expected coverage", "setting": "Aspergillus niger", "value": "yes"}, {"measurement": "Expected coverage", "setting": "Aspergillus flavus", "value": "yes"}, {"measurement": "Expected coverage", "setting": "Scedosporium apiospermum", "value": "yes"}, {"measurement": "Expected coverage", "setting": "Aspergillus terreus", "value": "yes"}]}
{"smiles": "CN[C@H](CC(C)C)C(=O)N[C@H]1C(=O)N[C@@H](CC(N)=O)C(=O)N[C@H]2C(=O)N[C@H]3C(=O)N[C@H](C(=O)N[C@H](C(=O)O)c4cc(O)cc(O)c4-c4cc3ccc4O)[C@H](O)c3ccc(c(Cl)c3)Oc3cc2cc(c3O[C@@H]2O[C@H](CO)[C@@H](O)[C@H](O)[C@H]2O[C@H]2C[C@](C)(N)[C@H](O)[C@H](C)O2)Oc2ccc(cc2Cl)[C@H]1O", "note": "[Vancomycin, vancomycin]", "values": [{"measurement": "Expected coverage", "setting": "Shigella dysenteriae", "value": "no"}, {"measurement": "Expected coverage", "setting": "Providencia rettgeri", "value": "no"}, {"measurement": "Expected coverage", "setting": "Diphtheroids", "value": "yes"}, {"measurement": "Expected coverage", "setting": "Enterobacter cloacae", "value": "no"}, {"measurement": "Expected coverage", "setting": "Klebsiella pneumoniae", "value": "no"}, {"measurement": "Expected coverage", "setting": "Providencia stuartii", "value": "no"}, {"measurement": "Expected coverage", "setting": "[1]", "value": "yes"}, {"measurement": "Expected coverage", "setting": "Bacteroides fragilis", "value": "no"}, {"measurement": "Expected coverage", "setting": "Streptococcus agalactiae", "value": "yes"}, {"measurement": "Expected coverage", "setting": "Chlamydia trachomatis", "value": "no"}, {"measurement": "Expected coverage", "setting": "[2]", "value": "yes"}, {"measurement": "Expected coverage", "setting": "Corynebacterium jeikeium", "value": "yes"}, {"measurement": "Expected coverage", "setting": "Shigella flexneri", "value": "no"}, {"measurement": "Expected coverage", "setting": "Acinetobacter baumannii", "value": "no"}, {"measurement": "Expected coverage", "setting": "Salmonella typhi", "value": "no"}, {"measurement": "Expected coverage", "setting": "[3]", "value": "yes"}, {"measurement": "Expected coverage", "setting": "Moraxella catarrhalis", "value": "no"}, {"measurement": "Expected coverage", "setting": "Yersinia pestis", "value": "no"}, {"measurement": "Expected coverage", "setting": "Citrobacter diversus", "value": "no"}, {"measurement": "Expected coverage", "setting": "Morganella morganii", "value": "no"}, {"measurement": "Expected coverage", "setting": "Streptococcus pyogenes", "value": "yes"}, {"measurement": "Expected coverage", "setting": "Vibrio cholerae", "value": "no"}, {"measurement": "Expected coverage", "setting": "[4]", "value": "no"}, {"measurement": "Expected coverage", "setting": "[5]", "value": "no"}, {"measurement": "Expected coverage", "setting": "Clostridium difficile", "value": "yes"}, {"measurement": "Expected coverage", "setting": "Shigella boydii", "value": "no"}, {"measurement": "Expected coverage", "setting": "Neisseria gonorrhoeae", "value": "no"}, {"measurement": "Expected coverage", "setting": "Legionella pneumophila", "value": "no"}, {"measurement": "Expected coverage", "setting": "Pseudomonas aeruginosa", "value": "no"}, {"measurement": "Expected coverage", "setting": "Klebsiella oxytoca", "value": "no"}, {"measurement": "Expected coverage", "setting": "Bartonella bacilliformis", "value": "no"}, {"measurement": "Expected coverage", "setting": "Chlamydia pneumoniae", "value": "no"}, {"measurement": "Expected coverage", "setting": "[6]", "value": "yes"}, {"measurement": "Expected coverage", "setting": "Campylobacter jejuni", "value": "no"}, {"measurement": "Expected coverage", "setting": "Proteus vulgaris", "value": "no"}, {"measurement": "Expected coverage", "setting": "Mycoplasma pneumoniae", "value": "no"}, {"measurement": "Expected coverage", "setting": "Chlamydia psittaci", "value": "no"}, {"measurement": "Expected coverage", "setting": "Haemophilus ducreyi", "value": "no"}, {"measurement": "Expected coverage", "setting": "[7]", "value": "no"}, {"measurement": "Expected coverage", "setting": "Escherichia coli", "value": "no"}, {"measurement": "Expected coverage", "setting": "Enterobacter aerogenes", "value": "no"}, {"measurement": "Expected coverage", "setting": "[8]", "value": "yes"}, {"measurement": "Expected coverage", "setting": "Rickettsiae", "value": "no"}, {"measurement": "Expected coverage", "setting": "Streptococcus pneumoniae", "value": "yes"}, {"measurement": "Expected coverage", "setting": "Bordetella pertussis", "value": "no"}, {"measurement": "Expected coverage", "setting": "Peptostreptococcus", "value": "yes"}, {"measurement": "Expected coverage", "setting": "Shigella sonnei", "value": "no"}, {"measurement": "Expected coverage", "setting": "Brucella species", "value": "no"}, {"measurement": "Expected coverage", "setting": "Pseudomonas fluorescens", "value": "no"}, {"measurement": "Expected coverage", "setting": "Proteus mirabilis", "value": "no"}, {"measurement": "Expected coverage", "setting": "Serratia marcescens", "value": "no"}, {"measurement": "Expected coverage", "setting": "Francisella tularensis", "value": "no"}, {"measurement": "Expected coverage", "setting": "Clostridium perfringens", "value": "no"}, {"measurement": "Expected coverage", "setting": "Citrobacter freundii", "value": "no"}, {"measurement": "Expected coverage", "setting": "Acinetobacter lwoffii", "value": "no"}, {"measurement": "Expected coverage", "setting": "Enterococcus faecalis", "value": "yes"}, {"measurement": "Expected coverage", "setting": "Enterobacter sakazakii", "value": "no"}, {"measurement": "Expected coverage", "setting": "Haemophilus influenzae", "value": "no"}, {"measurement": "Expected coverage", "setting": "Neisseria meningitidis", "value": "no"}]}
{"smiles": "OC(Cn1cncn1)(Cn1cncn1)c1ccc(F)cc1F", "note": "[Fluconazole, fluconazole]", "values": [{"measurement": "Expected coverage", "setting": "Cryptococcus neoformans", "value": "yes"}, {"measurement": "Expected coverage", "setting": "Aspergillus fumigatus", "value": "yes"}, {"measurement": "Expected coverage", "setting": "Candida species", "value": "yes"}, {"measurement": "Expected coverage", "setting": "Coccidioides immitis", "value": "yes"}, {"measurement": "Expected coverage", "setting": "Histoplasma capsulatum", "value": "yes"}, {"measurement": "Expected coverage", "setting": "Aspergillus flavus", "value": "yes"}, {"measurement": "Expected coverage", "setting": "Blastomyces dermatitidis", "value": "yes"}]}
{"smiles": "C[C@@H]1[C@H](O)[C@@H](C)/C=C/C=C/C=C/C=C/C=C/C=C/C=C/[C@H](O[C@@H]2O[C@H](C)[C@@H](O)[C@H](N)[C@@H]2O)C[C@@H]2O[C@](O)(C[C@@H](O)C[C@@H](O)[C@H](O)CC[C@@H](O)C[C@@H](O)CC(=O)O[C@H]1C)C[C@H](O)[C@H]2C(=O)O", "note": "[Amphotericin, amphotericin B]", "values": [{"measurement": "Expected coverage", "setting": "Leishmania infantum", "value": "yes"}, {"measurement": "Expected coverage", "setting": "Cryptococcus neoformans", "value": "yes"}, {"measurement": "Expected coverage", "setting": "Leishmania donovani", "value": "yes"}, {"measurement": "Expected coverage", "setting": "Aspergillus fumigatus", "value": "yes"}, {"measurement": "Expected coverage", "setting": "Candida species", "value": "yes"}, {"measurement": "Expected coverage", "setting": "Aspergillus niger", "value": "yes"}, {"measurement": "Expected coverage", "setting": "Coccidioides immitis", "value": "yes"}, {"measurement": "Expected coverage", "setting": "Histoplasma capsulatum", "value": "yes"}, {"measurement": "Expected coverage", "setting": "Aspergillus flavus", "value": "yes"}, {"measurement": "Expected coverage", "setting": "Blastomyces dermatitidis", "value": "yes"}, {"measurement": "Expected coverage", "setting": "Aspergillus terreus", "value": "yes"}, {"measurement": "Expected coverage", "setting": "[9]", "value": "yes"}]}
